Laboratory results from patent publication US20200360471A1, “METHODS OF TREATING AND PREVENTING VIRAL INFECTIONS” (priority 2017, published 2020).
Peptide text beside a SMILES is read from it.

Columns and labels:
[1] = tested on: imiquimod-induced inflammatory responses of the skin; experiment: Topical omiganan and imiquimod in skin of healthy subjects; format: in vivo, human
Method: Sixteen (16) healthy subjects participated in the study. Pharmacodynamic effects were assessed on Day 1, 2, 3, 4, 5 and 14 (EOS) by clinical assessment of the lesion on-site with visual erythema grading by a blinded investigator, erythema by colorimetry, erythema by multispectral imaging, erythema by 2D photography analysis, perfusion by laser speckle contrast imaging (LSCI), skin surface biomarkers by transdermal analysis patch (TAP) and local biopsies biomarkers. […] 3 mm skin punch biopsies were collected at day 5 for qPCR mRNA expression, histology and immunohistochemistry. Enhanced inflammation and immune system activation was observed when OMN was applied to 48 hours IMQ primed skin. This was most pronounced for markers IFNγ, IL-10, IL-6, MX1 and MXA (FIGS. 39-43, respectively) indicating an increased anti-viral response. Further, this activity is correlated with cellular infiltrates of CD4+, CD8+ and CD14+ cells (FIGS. 44-47).

IL-1β, IL-8 = experiment: Biomarkers (qPCR) in wart biopsies; format: in vivo, human; settings: during the study period
Method: (§1) The treatment period was from day 0 till day 84. During the treatment period subjects visited the clinical unit on days 0, 14, 28, 56 and 84. A fixed dose of omiganan or placebo was applied once daily. Two follow up visits were scheduled on days 126 and 168. During study execution, vital signs were measured on days 0, 14, 28, 56 and 84. Pharmacodynamic assessments were performed on day 0 (pre-dose), 14, 28, 56 and 84, respectively. Punch biopsies were performed at the screening and on days 56 and 168. Subjects were dosed 84 consecutive days with approximately 24 hours between each treatment.
Biomarkers in biopsy. Biopsies were taken from biopsy wart 1 at screening, biopsy wart 2 at EOT and target wart at EOS. Biopsies were only taken when the warts were still visible.

HPV6 and HPV11 = experiment: HPV viral load (qPCR) in swabs of target wart; format: in vivo
Method: as §1
HPV viral load in swabs. Swabs were taken from the target wart (or site where target wart was) at every study visit. A quantitative PCR (qPCR) of the swabs was performed for HPV6 and HPV11 to determine the viral load of the specific HPV. Swab samples were collected at day 0, 14, 28, 56, 84 (EOT), […] and 168 (EOS). In FIGS. 22A and 22B, the qPCR was expressed as copies/μL and natural log transformed. In FIGS. 23A and 23B, the qPCR was expressed as copies/μL, natural log transformed and also corrected for the amount of DNA in the sample.

TC-1 tumor = experiment: Tumor outgrowth in TC-1 mice in presence or absence of anti-neutrophil antibody aLy6G; format: in vivo
Method: 10, 12, and 14. Tumor growth was measured at days 11, 13, 15, 17, 20, and 22.

TLR3/RIG-1/Mda5 = experiment: polyI:C-induced cytokine responses in PBMC cultures with peptide pre-treatment; format: cell-based, human; settings: 5 or 25 μg/mL peptide, 30 min pre-treatment, 24 hrs
Method: Primary cell cultures were prepared in RPMI including 5% autologous plasma. Isolated PBMC cells were cultured in 96-well plates at a density of 0.5×10^6cells/well at 37° C., under humidified 5% CO2.
IL-1β, TNFα, IL-6 and IL-8 were measured simultaneously with a fixed electrochemoluminescence platform based on the sandwich ELISA principle of capture and detection antibodies, produced by MESO SCALE DISCOVERY (MSD, MESO SCALE QUICKPLEX SQ120). The applied assay was the V-PLEX PLUS pro-inflammatory cytokine panel II, including IL-1β, TNFα, IL-6 and IL-8. This assay includes manufacturer-provided control samples with indicated nominal values for comparison. These lyophilized controls, i.e. freeze-dried controls for IL-1β, TNFα, IL-6, IL-8, were prepared freshly at the time of use. QC samples were prepared from the calibrator at 3 different concentrations along the standard curve as multiple aliquots from a single batch and maintained at −20° C. Low, medium and high concentration controls were included in every multiplex assay run to control intra- and inter-assay variation. V-PLEX panels are specific for the detection of human chemokines and cytokines, and combinations have been validated by the manufacturer, to ensure no cross-reactivity.
(§2) IFNα was quantified by a sandwich ELISA based on specific capture and detection antibodies for various matrices (MABTECH), according to the manufacturer's instructions. QC samples were prepared from the calibrator at 3 different concentrations along the standard curve as multiple aliquots from a single batch and maintained at −20° C.
as §2, with “IFNβ” for “IFNα”, “(PBL ASSAY SCIENCE),” for “(MABTECH),”, “C. freezer.” for “C.”
Briefly, PBMC primary cultures were prepared from 4 healthy donors (2 males, 2 females) as described above. […] The cultures were prepared in duplicate and the readouts for pan-IFNα and IFNβ (ELISA) were measured once. Five-point concentration-response curves were constructed for the various treatment conditions in the PBMC cultures, freshly isolated from 4 subjects.

HPVS PsV = settings: read-out: IC50, inhibition of uptake of HPVS PsV; PsV 1:6000 dilution, 293TT cells
Method: Pseudovirus (PsV) of HPVS was prepared using method described by Buck et al, (Journal of Virology, January 2004; 751-757) and used as a model HPV in this study. The PsV stocks were prepared by co-transfecting human 293TT cells with HPVS viral plasmid p5Shell containing codon-modified papillomavirus capsid genes for L1 and L2 proteins, and pcLucF reporter plasmid containing the luciferase gene for detecting viral infection. The cell lysates containing the capsidized virus was used as the PsV stock. Optimal PsV dilution factor was determined based on the luciferase activity in 293TT cells infected with serially diluted HPVS PsV.
Data were collected on a Molecular Devices Flexstation 3 Microplate Reader using Softmax Pro v5.4.4. Data analysis was performed on Prism software using four parameter logistic model. […] Furin Inhibitor I was used as a positive control for HPVS PsV inhibition since it blocks the viral entry into host cells.
Two runs were performed for each dilution level.

[2] = omiganan applied after imiquimod application

CC[C@H](C)[C@H](N)C(=O)N[C@@H](CC(C)C)C(=O)N[C@@H](CCCNC(=N)N)C(=O)N[C@@H](Cc1c[nH]c2ccccc12)C(=O)N1CCC[C@H]1C(=O)N[C@@H](Cc1c[nH]c2ccccc12)C(=O)N[C@@H](Cc1c[nH]c2ccccc12)C(=O)N1CCC[C@H]1C(=O)N[C@@H](Cc1c[nH]c2ccccc12)C(=O)N[C@@H](CCCNC(=N)N)C(=O)N[C@@H](CCCNC(=N)N)C(=O)N[C@@H](CCCCN)C(N)=O [omiganan, I L R W P W W P W R R K] (H-ILRWPWWPWRRK-NH2)
relation of this activity to cellular infiltrates of CD4+, CD8+ and CD14+ cells ([1]; applied to 48 hours IMQ primed skin, biopsies day 5): correlated | inflammation and immune system activation (most pronounced for IFNγ, IL-10, IL-6, MX1, MXA) ([1]; applied to 48 hours IMQ primed skin, biopsies day 5, qPCR): Enhanced | basal blood flow [1, 2]: enhanced the activity of imiquimod | erythema [1, 2]: enhanced the activity of imiquimod | amount of IL-1β in biopsies (IL-1β, IL-8): increased | amount of IL-8 in biopsies (IL-1β, IL-8): increased | viral load of HPV6 in swabs (HPV6 and HPV11; during omiganan treatment): strong trend toward reduction | HPV6 and HPV11 viral load compared to placebo (HPV6 and HPV11; swabs, qPCR, at EOT, p=0.0201): statistical significant decrease | tumor outgrowth compared to PBS-treated mice (TC-1 tumor; intratumoral on days 9, 11, 14, 16, 18, without aLy6G): reduction in tumor outgrowth | reduction in tumor outgrowth (TC-1 tumor; omiganan treated group also treated with aLy6G): not observed | IL-6 responses to polyI:C (TLR3/RIG-1/Mda5) (TLR3/RIG-1/Mda5): did not significantly affect | TNFα responses to polyI:C (TLR3/RIG-1/Mda5) (TLR3/RIG-1/Mda5): did not significantly affect | polyI:C-driven IL-1β release (TLR3/RIG-1/Mda5): did not significantly affect | spontaneous and polyI:C-driven IL-8 release (TLR3/RIG-1/Mda5): strongly inhibited | interferon responses induced by polyI:C stimulation (TLR3/RIG-1/Mda5; PBMC of 4 donors): enhanced | IC50 (HPVS PsV): 23.5 to 29.1 µM
